In ChEMBL document CHEMBL1139983, “The anti-androgen effect of ganoderol B isolated from the fruiting body of Ganoderma lucidum” (Bioorg Med Chem, 2007):
Calls of active or inactive are those of the source. No cut-off for these calls is given here.

Legend:
[1] = Inhibition of steroid 5-alpha-reductase activity in Sprague-Dawley rat liver microsomes after 10 mins; design: species or system Microsome
Rattus norvegicus [2] = assay: Inhibition of testosterone induced ventral prostate growth in Sprague-Dawley rat at 0.001 mg/kg/day, po after 7 days; format: functional, Prostate gland; design: scale not given: the % may be the effect or the level left
[3] = biological target: T1, Androgen receptor (Homo sapiens) (UniProt P10275); assay: Displacement of dihydrotestosterone from human recombinant AR ligand binding domain at 15 uM by fluorescence polarization method
T1 sequence (whole entry): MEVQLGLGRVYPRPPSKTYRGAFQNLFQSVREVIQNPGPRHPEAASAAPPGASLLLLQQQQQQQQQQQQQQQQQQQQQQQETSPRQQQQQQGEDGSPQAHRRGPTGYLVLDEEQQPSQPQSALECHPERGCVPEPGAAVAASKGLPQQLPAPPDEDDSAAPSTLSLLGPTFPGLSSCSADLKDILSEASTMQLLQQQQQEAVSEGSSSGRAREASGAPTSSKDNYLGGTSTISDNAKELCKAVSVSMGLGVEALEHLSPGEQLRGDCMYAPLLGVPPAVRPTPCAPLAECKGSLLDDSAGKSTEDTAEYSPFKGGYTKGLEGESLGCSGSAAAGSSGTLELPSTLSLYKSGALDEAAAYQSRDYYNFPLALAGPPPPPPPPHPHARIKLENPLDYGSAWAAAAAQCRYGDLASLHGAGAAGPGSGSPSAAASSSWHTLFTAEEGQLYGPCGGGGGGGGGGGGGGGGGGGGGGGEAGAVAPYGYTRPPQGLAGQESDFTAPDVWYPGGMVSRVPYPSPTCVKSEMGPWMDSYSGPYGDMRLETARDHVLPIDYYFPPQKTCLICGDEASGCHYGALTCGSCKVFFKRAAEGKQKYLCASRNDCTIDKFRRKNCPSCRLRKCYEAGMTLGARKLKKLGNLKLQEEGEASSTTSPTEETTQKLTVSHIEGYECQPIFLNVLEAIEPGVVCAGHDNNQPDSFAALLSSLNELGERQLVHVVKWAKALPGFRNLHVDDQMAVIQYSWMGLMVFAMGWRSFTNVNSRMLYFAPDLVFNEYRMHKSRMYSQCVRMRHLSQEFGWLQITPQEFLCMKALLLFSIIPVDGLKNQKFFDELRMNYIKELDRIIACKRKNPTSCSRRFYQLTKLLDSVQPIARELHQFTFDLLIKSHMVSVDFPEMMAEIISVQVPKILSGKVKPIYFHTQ

Rattus norvegicus [4] = assay: Inhibition of testosterone induced ventral prostate growth in Sprague-Dawley rat at 0.1 mg/kg/day, po after 7 days; format: functional; details: Prostate gland, 168 h
LNCaP [5] = assay: Growth inhibition of human LNCaP cells in presence of dihydrotestosterone after 3 days; format: functional, cell-based
LNCaP [6] = assay: Growth inhibition of human LNCaP cells in presence of testosterone after 3 days; format: functional, cell-based
Rattus norvegicus [7] = species: Rattus norvegicus; assay: Inhibition of steroid 5-alpha-reductase activity in Sprague-Dawley rat liver microsomes at 113 uM after 10 mins; details: Microsome
LNCaP [8] = assay: Growth inhibition of human LNCaP cells after 3 days; format: functional, cell-based

`CC(C)(C)NC(=O)[C@H]1CC[C@H]2[C@@H]3CC[C@H]4NC(=O)C=C[C@]4(C)[C@H]3CC[C@]12C` [FINASTERIDE] showed an IC50 [1] of 730 nM.

Compound `C/C(=C\CC[C@@H](C)[C@H]1CC[C@@]2(C)C3=CC[C@H]4C(C)(C)[C@@H](O)CC[C@]4(C)C3=CC[C@]12C)CO` [GANODEROL B] has an Activity (Rattus norvegicus [2]) of 31%, an Activity [3] of 50% and an inhibition in vivo at 0.1 mg/kg/day (Rattus norvegicus [4]) of 49%. The Activity (LNCaP [5]) was “Dose-dependent effect”, the Activity (LNCaP [6]) was “Dose-dependent effect” and the inhibition (Rattus norvegicus [7]) was 37%. The Activity (LNCaP [8]) was “inactive”.
